The values that follow are results of earlier work, collected in article PMC6272651, “Novel Orally Active Analgesic and Anti-Inflammatory Cyclohexyl-N-Acylhydrazone Derivatives” (Molecules, 2015).

The target of the data set is T1, adenosine receptor, subtype A2A (Rattus norvegicus, UniProt P30543).
T1 construct: gene Adora2a
Briefly: radioligand displacement of [3H]CGS21680 ([…]) from rat A2A receptors. Particulars: read-out: Binding A2a / % of inhibition ^a.

T1 sequence (P30543 whole entry): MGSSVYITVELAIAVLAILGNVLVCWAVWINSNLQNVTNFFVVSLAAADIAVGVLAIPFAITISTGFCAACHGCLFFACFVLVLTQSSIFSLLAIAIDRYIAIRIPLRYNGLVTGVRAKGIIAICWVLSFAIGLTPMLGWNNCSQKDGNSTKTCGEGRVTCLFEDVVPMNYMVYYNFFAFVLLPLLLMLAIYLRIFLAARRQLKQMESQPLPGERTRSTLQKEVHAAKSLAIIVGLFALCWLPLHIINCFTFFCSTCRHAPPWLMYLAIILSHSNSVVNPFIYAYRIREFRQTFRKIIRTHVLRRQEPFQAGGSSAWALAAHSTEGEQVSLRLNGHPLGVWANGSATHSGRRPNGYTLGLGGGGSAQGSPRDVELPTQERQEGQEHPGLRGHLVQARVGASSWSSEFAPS

With `O=C(N/N=C/c1cccs1)c1ccc2c(c1)OCO2` [compound 8, (E)-N'-((thiophen-2-yl)methylene)benzo[d][1,3]dioxole-5-carbohydrazide], the Ki is 8.2 µM.
